The source made the active and inactive calls.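 Rule for the calls: active = human M5 calcium response above 60% of the acetylcholine maximum, marking a potentiator (some results past the limit were not filed as active); inactive = the rest.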
Target: Muscarinic acetylcholine receptor M5 (Homo sapiens) (UniProt P08912)
Assay: human M5 potentiators of ACh EC20 response – cell-based, CHO-K1 hM5, Fluo-4 calcium flux, concentration-response, confirmation (AID 743102)
Settings: ACh EC20 PAM; for % ACh max: active compounds read high; for % ACh max response: at 30 µM (top of the series)

Chain of Muscarinic acetylcholine receptor M5 (Homo sapiens) (P08912 whole entry, looked up): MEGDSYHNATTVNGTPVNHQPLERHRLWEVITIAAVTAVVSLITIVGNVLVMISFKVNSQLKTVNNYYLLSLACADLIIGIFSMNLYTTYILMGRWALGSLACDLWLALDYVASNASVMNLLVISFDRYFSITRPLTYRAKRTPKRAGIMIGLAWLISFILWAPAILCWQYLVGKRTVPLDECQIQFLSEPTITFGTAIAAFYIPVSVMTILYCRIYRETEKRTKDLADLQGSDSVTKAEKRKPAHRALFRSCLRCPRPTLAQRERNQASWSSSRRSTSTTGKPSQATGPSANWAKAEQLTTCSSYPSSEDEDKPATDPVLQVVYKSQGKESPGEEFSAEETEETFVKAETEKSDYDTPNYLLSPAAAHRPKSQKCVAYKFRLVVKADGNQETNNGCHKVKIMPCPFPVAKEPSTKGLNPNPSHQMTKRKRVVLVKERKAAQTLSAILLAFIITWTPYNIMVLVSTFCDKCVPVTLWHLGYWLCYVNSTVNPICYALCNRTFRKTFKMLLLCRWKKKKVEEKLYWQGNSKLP

Row | Compound | EC50 [µM] | further results
1 | CCN(Cc1cccc(C#N)c1)C(=O)C1CCN(S(=O)(=O)c2ccc3cn[nH]c3c2)CC1 | – | % ACh max: inactive
2 | CCN(Cc1ccccc1)C(=O)C1CCN(S(=O)(=O)c2cccc(OC)c2)CC1 | 3.25 | –
3 | CCN(Cc1ccccc1)C(=O)C1CCN(S(=O)(=O)c2ccc3occc3c2)CC1 | 1.4 | –
4 | COc1ccc(S(=O)(=O)N2CCC(C(=O)NCc3ccccc3)CC2)cc1 | – | % ACh max response: inactive
5 | COc1ccc(S(=O)(=O)N2CCC(C(=O)N(C)Cc3ccccc3)CC2)cc1 | – | % ACh max: inactive
6 | CCN(C(=O)C1CCN(S(=O)(=O)c2ccc(OC)cc2)CC1)[C@@H](C)c1ccccc1 | – | % ACh max response: inactive
7 | CCN(Cc1ccccc1)C(=O)C1CCN(S(=O)(=O)c2ccc(OC)cc2)CC1 | 3.57 | –
8 | CCN(Cc1ccccc1)C(=O)C1CCN(S(=O)(=O)C2CC2)CC1 | – | % ACh max response: inactive
9 | CCN(Cc1ccccc1)C(=O)C1CCN(S(C)(=O)=O)CC1 | – | % ACh max response: inactive
10 | CCN(Cc1ccccc1C(F)(F)F)C(=O)C1(F)CCN(S(=O)(=O)c2ccc3[nH]ncc3c2)CC1 | 0.43 | –
11 | CCN(C(=O)C1CCN(S(=O)(=O)c2ccc3cn[nH]c3c2)CC1)C(C)c1ccccn1 (centres undefined) | – | % ACh max: inactive
12 | CCN(Cc1ccccc1)C(=O)[C@@H]1CCCN(S(=O)(=O)c2ccc(OC)cc2)C1 | – | % ACh max response: inactive
13 | CCN(Cc1ccccc1)C(=O)C1CCN(S(=O)(=O)c2ccc(C)s2)CC1 | 7.48 | –
14 | CCN(C(=O)C1CCN(S(=O)(=O)c2ccc3occc3c2)CC1)[C@H](C)c1ccccc1C(F)(F)F | – | % ACh max response: inactive
15 | CCN(Cc1ccccc1)C(=O)C1CCN(S(=O)(=O)c2ccc3ncccc3c2)CC1 | – | % ACh max: inactive
16 | CCN(Cc1ccc(OC)cc1)C(=O)C1CCN(S(=O)(=O)c2ccc3cn[nH]c3c2)CC1 | – | % ACh max: inactive
17 | CCN(C(=O)Cc1ccccc1)C1CCN(S(=O)(=O)c2ccc(OC)cc2)CC1 | – | % ACh max response: inactive
18 | CCN(Cc1ccccc1)C(=O)C1CCN(S(=O)(=O)c2ccc3c(c2)OCCO3)CC1 | 12.3 | –
19 | CCN(Cc1ccccc1)C(=O)C1CCN(S(=O)(=O)c2cccc(Cl)c2)CC1 | 4.81 | –
20 | CCN(Cc1ccccc1)C(=O)C1CCN(S(=O)(=O)c2ccc(C(C)=O)cc2)CC1 | 6.55 | –
21 | CCc1ccc(S(=O)(=O)N2CCC(C(=O)N(CC)Cc3ccccc3)CC2)cc1 | 3.75 | –
22 | CCN(Cc1ccccc1)C(=O)C1CCN(S(=O)(=O)c2ccc(OC(F)F)cc2)CC1 | 5.05 | –
23 | C=CCN(Cc1ccccc1C(F)(F)F)C(=O)C1CCN(S(=O)(=O)c2ccc3[nH]ncc3c2)CC1 | 1.86 | –
24 | CCN(Cc1ccccn1)C(=O)C1CCN(S(=O)(=O)c2ccc3cn[nH]c3c2)CC1 | – | % ACh max: inactive
25 | CCN(Cc1ccccc1)C(=O)C1CCN(S(=O)(=O)c2ccc(C)cc2)CC1 | 5.45 | –
26 | O=C(C1CCN(S(=O)(=O)c2ccc3[nH]ncc3c2)CC1)N(CCF)Cc1ccccc1C(F)(F)F | 1.32 | –
27 | CCN(Cc1ccccc1)C(=O)C1CCN(S(=O)(=O)c2ccc(Br)cc2)CC1 | 3.92 | –
28 | CCN(C(=O)Cc1ccccc1)C1CCN(S(=O)(=O)c2ccc3c(c2)OCCO3)CC1 | – | % ACh max response: inactive

Row | Compound | EC50 [µM] | further results
29 | O=C(C1CCN(S(=O)(=O)c2ccc3c(c2)OCCO3)CC1)N1CCc2ccccc2C1 | – | % ACh max response: inactive
30 | O=C(C1CCN(S(=O)(=O)c2ccc3[nH]ncc3c2)CC1)N(Cc1ccccc1C(F)(F)F)C1CC1 | – | % ACh max response: inactive
31 | CC(C)N(Cc1ccccc1C(F)(F)F)C(=O)C1CCN(S(=O)(=O)c2ccc3[nH]ncc3c2)CC1 | – | % ACh max: inactive
32 | CCN(Cc1ccccc1)C(=O)C1CCN(S(=O)(=O)c2ccc(OC)c(OC)c2)CC1 | – | % ACh max: inactive
33 | COc1ccc(S(=O)(=O)N2CCC3(CCN(Cc4ccccc4)C3=O)CC2)cc1 | – | % ACh max response: inactive
34 | CCN(Cc1ccccc1)C(=O)C1CCN(S(=O)(=O)c2ccccc2)CC1 | 5.37 | –
35 | CCN(Cc1ccccc1)C(=O)C1CCN(S(=O)(=O)c2ccc(OC(F)(F)F)cc2)CC1 | 6.1 | –
36 | CCCc1ccc(S(=O)(=O)N2CCC(C(=O)N(CC)Cc3ccccc3)CC2)cc1 | 3.23 | –
37 | CCN(Cc1ccccc1C(F)(F)F)C(=O)C1CCN(S(=O)(=O)c2ccc3[nH]ncc3c2)CC1 | 0.23 | –
38 | CCN(Cc1ccccc1)C(=O)C1CCN(S(=O)(=O)c2cccc(C(F)(F)F)c2)CC1 | – | % ACh max: inactive
39 | CCN(Cc1cccc(C(F)(F)F)c1)C(=O)C1CCN(S(=O)(=O)c2ccc3cn[nH]c3c2)CC1 | – | % ACh max: inactive
40 | CCCN(Cc1ccccc1C(F)(F)F)C(=O)C1CCN(S(=O)(=O)c2ccc3[nH]ncc3c2)CC1 | 0.16 | –
41 | C[C@@H](NC(=O)C1CCN(S(=O)(=O)c2ccc3[nH]ncc3c2)CC1)c1ccccc1 | – | % ACh max response: inactive
42 | CCN(Cc1ccccc1)C(=O)C1CCN(S(=O)(=O)c2ccc(N3CCOCC3)nc2)CC1 | – | % ACh max: inactive
43 | O=C1N(Cc2ccccc2)CCC12CCN(S(=O)(=O)c1ccc3c(c1)OCCO3)CC2 | – | % ACh max response: inactive
44 | CCN(Cc1ccccc1C(F)(F)F)C(=O)C1CCN(S(=O)(=O)c2ccc(-n3cccn3)cc2)CC1 | 1.26 | –
45 | CCN(Cc1ccccc1)C(=O)C1CCN(S(=O)(=O)c2cccc3c2OCCO3)CC1 | – | % ACh max: inactive
46 | CCN(Cc1ccccc1)C(=O)C1CCN(S(=O)(=O)c2ccc(C(F)(F)F)cc2)CC1 | – | % ACh max: inactive
47 | CCN(Cc1ccccc1)C(=O)C1CCN(S(=O)(=O)c2cccc(OC(F)F)c2)CC1 | 3.98 | –
48 | CCN(Cc1ccccc1)C(=O)C1CCN(S(=O)(=O)c2ccc3nsnc3c2)CC1 | 5.23 | –
49 | CCN(Cc1ccccc1C(F)(F)F)C(=O)C1C2CN(S(=O)(=O)c3ccc4[nH]ncc4c3)CC21 (centres undefined) | – | % ACh max response: inactive
50 | CCN(Cc1ccccc1)C(=O)[C@H]1CCCN(S(=O)(=O)c2ccc(OC)cc2)C1 | – | % ACh max response: inactive
51 | O=C(NCc1ccccc1)C1CCN(S(=O)(=O)c2ccc3c(c2)OCCO3)CC1 | – | % ACh max response: inactive
52 | O=C(C1CCN(S(=O)(=O)c2ccc3[nH]ncc3c2)CC1)N(CCO)Cc1ccccc1C(F)(F)F | – | % ACh max: inactive
53 | CN(C)C(=O)C1(Cc2ccccc2)CCN(S(=O)(=O)c2ccc3occc3c2)CC1 | – | % ACh max response: inactive
54 | O=C(C1CCN(S(=O)(=O)c2ccc3cn[nH]c3c2)CC1)N(Cc1ccccc1C(F)(F)F)C1CC1 | – | % ACh max response: inactive
55 | CCN(Cc1ccccc1C(F)(F)F)C(=O)C1CN(S(=O)(=O)c2ccc3[nH]ncc3c2)C1 | – | % ACh max response: inactive

Second part, led by results:

Row | EC50 [µM] | Compound | further results
56 | 0.77 | CCN(C(=O)C1CCN(S(=O)(=O)c2ccc3[nH]ncc3c2)CC1)[C@H](C)c1ccccc1 | –
57 | 1 | CCN(Cc1cccc(C)c1)C(=O)C1CCN(S(=O)(=O)c2ccc3cn[nH]c3c2)CC1 | –
58 | 1.27 | CCN(Cc1cccc(F)c1)C(=O)C1CCN(S(=O)(=O)c2ccc3cn[nH]c3c2)CC1 | –
59 | 1.67 | CCN(Cc1cccc(Cl)c1)C(=O)C1CCN(S(=O)(=O)c2ccc3cn[nH]c3c2)CC1 | –
60 | 0.76 | CCN(C(=O)C1CCN(S(=O)(=O)c2ccc3c(c2)CCC3)CC1)[C@H](C)c1ccccc1 | –
61 | 7.02 | CCN(Cc1ccccc1C#N)C(=O)C1CCN(S(=O)(=O)c2ccc3cn[nH]c3c2)CC1 | –
62 | 0.83 | CCN(C(=O)C1CCN(S(=O)(=O)c2ccc3cn[nH]c3c2)CC1)[C@H](C)c1ccccc1 | –
63 | 2.08 | CCN(Cc1ccccc1F)C(=O)C1CCN(S(=O)(=O)c2ccc3cn[nH]c3c2)CC1 | –
64 | 0.94 | CCN(Cc1ccccc1C)C(=O)C1CCN(S(=O)(=O)c2ccc3cn[nH]c3c2)CC1 | –
65 | 0.42 | CCN(Cc1ccccc1C(F)(F)F)C(=O)C1CCN(S(=O)(=O)c2ccc3cn[nH]c3c2)CC1 | –
66 | 1.66 | CCN(Cc1ccccc1)C(=O)C1CCN(S(=O)(=O)c2ccc3[nH]ncc3c2)CC1 | –
67 | 2.69 | CCN(Cc1cccc(OC)c1)C(=O)C1CCN(S(=O)(=O)c2ccc3cn[nH]c3c2)CC1 | –
68 | 0.98 | CCN(C(=O)C1CCN(S(=O)(=O)c2ccc3c(c2)CCO3)CC1)[C@H](C)c1ccccc1 | –
69 | 0.7 | CCN(C(=O)C1CCN(S(=O)(=O)c2ccc(-n3cccn3)cc2)CC1)[C@H](C)c1ccccc1 | –
70 | 7.09 | CCN(Cc1ccccc1OC)C(=O)C1CCN(S(=O)(=O)c2ccc3cn[nH]c3c2)CC1 | –
71 | 0.53 | [2H]C([2H])(C)N(C(=O)C1CCN(S(=O)(=O)c2ccc3cn[nH]c3c2)CC1)[C@H](C)c1ccccc1 | –
72 | 0.34 | CCN(Cc1ccccc1Cl)C(=O)C1CCN(S(=O)(=O)c2ccc3[nH]ncc3c2)CC1 | –
73 | 0.43 | CCN(Cc1ccccc1Cl)C(=O)C1CCN(S(=O)(=O)c2ccc3cn[nH]c3c2)CC1 | –
74 | 2.54 | CCN(C(=O)C1CCN(S(=O)(=O)c2cc(F)c(F)c(F)c2)CC1)[C@H](C)c1ccccc1 | –
75 | 1.08 | CCN(C(=O)C1CCN(S(=O)(=O)c2ccc(OC)cc2)CC1)[C@H](C)c1ccccc1 | –
76 | 3.43 | CCN(Cc1ccccc1OC(F)(F)F)C(=O)C1CCN(S(=O)(=O)c2ccc3cn[nH]c3c2)CC1 | –
77 | 4.06 | CCN(C(=O)C1CCN(S(=O)(=O)c2ccc3[nH]ncc3c2)CC1)[C@H](C)c1ccccc1C(F)(F)F | –
78 | 2.09 | CCN(Cc1ccccc1)C(=O)C1CCN(S(=O)(=O)c2ccc3cn[nH]c3c2)CC1 | –
79 | 0.92 | CCN(C(=O)C1CCN(S(=O)(=O)c2ccc3occc3c2)CC1)[C@H](C)c1ccccc1 | –

— PubChem BioAssay AID743102 (Vanderbilt Specialized Chemistry Center, 2013)
